melting point | Structure (SMILES)
204 to 205 °C | O=S(=O)(NCCCO)c1ccc(Nc2nccc(-c3ccc(C(F)(F)F)cc3)n2)cc1 [Exemplary Compound 68, N-(3-hydroxypropyl)-4-({4-[4-(trifluoromethyl)phenyl]pyrimidin-2-yl}amino)-benzenesulfonamide]
240 to 241 °C | O=S(=O)(c1ccc(Nc2nccc(-c3ccc(C(F)(F)F)cc3)n2)cc1)N1CCOCC1 [Exemplary Compound 39, N-[4-(Morpholin-4-ylsulfonyl)phenyl]-4-[4-(trifluoromethyl)phenyl]pyrimidin-2-amine]

From patent publication US20070244140A1, “Anilino-pyrimidine phenyl and benzothiophene analogs” (Wyeth, priority 2006, published 2007)
